# Values quoted from earlier work as cited in patent US11926624B2 (INTERNATIONAL PAPER COMPANY, priority 2018, dated 2024).
# Read-outs that look alike come from different tables or passages of the source.
# Key:
# aequorin = molecular target: T1, aequorin (Aequorea victoria, UniProt P07164); conditions: for luminescence intensity relative to coelenterazine (native form): coelenterazine-aequorin/apoaequorin complex
# T1 sequence (P07164 8-196): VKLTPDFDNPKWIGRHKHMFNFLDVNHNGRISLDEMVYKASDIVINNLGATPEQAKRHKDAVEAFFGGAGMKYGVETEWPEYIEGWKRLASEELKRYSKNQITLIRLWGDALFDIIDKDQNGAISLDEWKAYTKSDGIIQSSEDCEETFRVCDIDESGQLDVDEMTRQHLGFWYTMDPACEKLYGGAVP
# Renilla Luciferase = molecular target: T2, Renilla Luciferase (Renilla reniformis, UniProt P27652); conditions: for Aem / Initial Intensity / Total Light: with Renilla Luciferase; for Initial Intensity: luminescent intensity as % initial intensity; for Total Light: native = 100
# T2 sequence (P27652 1-311): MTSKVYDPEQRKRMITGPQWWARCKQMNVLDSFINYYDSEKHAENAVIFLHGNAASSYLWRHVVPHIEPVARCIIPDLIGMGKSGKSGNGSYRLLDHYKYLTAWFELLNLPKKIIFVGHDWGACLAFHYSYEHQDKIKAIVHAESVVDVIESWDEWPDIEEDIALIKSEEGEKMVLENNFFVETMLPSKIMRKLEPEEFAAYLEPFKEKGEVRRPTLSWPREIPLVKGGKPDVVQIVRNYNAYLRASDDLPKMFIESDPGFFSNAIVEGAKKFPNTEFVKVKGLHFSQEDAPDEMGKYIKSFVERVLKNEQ
# [1] = tested on: Gaussia luciferase (Gluc)
compound,measurement,setting,value
O=c1c(Cc2ccc(F)cc2)nc2c(CC3CCCC3)[nH]c(-c3ccc(O)cc3)cn1-2 [coelenterazine fcp],luminescence intensity relative to coelenterazine (native form),aequorin,about 135 times
same,substrate quality for Renilla luciferase,Renilla Luciferase,poor substrate
O=c1c(Cc2ccc(F)cc2)nc2c(Cc3ccccc3)[nH]c(-c3ccc(O)cc3)cn1-2 [coelenterazine f],luminescence intensity relative to coelenterazine (native form),aequorin,about 20 times
same,emission maximum longer than that of the native form,aequorin; coelenterazine-apoaequorin complex,about 8 nm
same,Aem,Renilla Luciferase,473 nm
same,Initial Intensity,Renilla Luciferase,45%
same,Total Light,Renilla Luciferase,28%
O=c1c(Cc2ccc(O)cc2)nc2c(CC3CCCC3)[nH]c(-c3ccc(O)cc3)cn1-2 [coelenterazine cp],Aem,Renilla Luciferase,470 nm
same,Total Light,Renilla Luciferase,23%
"O=c1c(Cc2ccccc2)nc2c(Cc3ccccc3)[nH]c(-c3ccccc3)cn1-2 [coelenterazine 400a, (2-2′(4-dehydroxy)) coelenterazine]",oxidation with Gaussia luciferase,[1],does not oxidize well
same,emission maximum,Renilla Luciferase,about 400 nm
same,substrate quality for Renilla luciferase,Renilla Luciferase,good substrate
"8-benzyl-2-(4-hydroxybenzyl)-6-(4-hydroxyphenyl)imidazo[1,2-α]pyrazin-3(7H)-one [coelenterazine]",Initial Intensity,Renilla Luciferase; listed as native,45%
same,Initial Intensity,Renilla Luciferase; listed as native coelenterazine,about 45%
same,Total Light,Renilla Luciferase,100%
